The target of data set [1] is T1, Aβ1-42 (Homo sapiens, UniProt P05067).
T1 construct: Aβ^1-42 (AnaSpec, lot 45685); purchased AnaSpec
The data set is described as follows: Kinetic Thioflavin T (ThT) aggregation assay of Aβ1-42. Type of data set: biochemical. The note with it: 20 μM Aβ1-42, kinetic ThT assay. Here is the method: Aβ^1-42 (1.0 mg) was either pretreated with HFIP in the same manner as Aβ^1-40 or this step was omitted. After removing HFIP, when appropriate, Aβ^1-42 was dissolved in 1% NH3 (aq.) (200 μL) and sonicated for 1 min. The solution was diluted with Tris-HCl (5.7 mL, 20 mM, pH 7.4), the pH adjusted to 7.4 with concentrated HCl (aq.) and the solution filtered using a syringe filter (0.2 μm). Prior to use in the ThT aggregation assay, the solution was diluted with an equal volume of 8 μM Thioflavin T (ThT) in Tris-HCl (20 mM, pH 7.4, 300 mM NaCl).
(§1) Aliquots (200 μL) of Aβ^1-40, Aβ^1-42, tau441 or α-synuclein with ThT or ThS were added to wells of a black polystyrene 96-well plate, followed by 2 μL of a compound in DMSO (various concentrations), or DMSO alone (controls). For α-synuclein, sodium dodecyl sulfate solution (2.0 μL, 30 mM) was also added to each well to induce aggregation. Incubations were performed in triplicate and were taken to contain 20 μM Aβ^1-40 or Aβ^1-42, 6 μM tau441 or 4 μM α-synuclein. Plates were covered with clear polystyrene lids and incubated at 37° C. in a GENios microplate reader obtained from Tecan Group Limited, Mannedorf, Zurich. For Aβ^1-40, tau441 and α-synuclein, fluorescence readings (λex=450 nm, λem=480 nm) were taken every 15 min., after first shaking at high intensity for 15 sec. and allowing to settle for 10 sec. before each reading. For Aβ^1-42, readings were taken every 5 min.
(§2) The absorbance of each compound was measured under the conditions used during testing, though on ten times the scale (2 mL), to ensure no significant quenching interfered with the assay. This step was also used to identify whether compounds were completely soluble under testing conditions.
FIG. 7 depicts inhibition of Aβ^1-42 aggregation by various synthesized bi-aromatic compounds and positive controls morin (Ono K, Yoshiike Y, Takashima A, Hasegawa K, Naiki H, Yamada M. 2003. J Neurochem 87:172-81) and RS-0406 (Walsh D M, Townsend M, Podlisny M B, Shankar G M, Fadeeva J V, Agnaf O E, Hartley D M, Selkoe D J. 2005. J Neurosci 25:2455-62) in the kinetic ThT assay. Same conditions as for Aβ^1-40, FIG. 1. Compound concentrations were 100 μM in (A), 20 μM in (B), except for RS-0406, which was tested at 100 μM, and 20 μM in (C).

In data set [2] the target is T2, Aβ1-40 (Homo sapiens, UniProt P05067).
T2 construct: Aβ^1-40 (AnaSpec, San Jose, Calif., lots 14212, 34862 and 34889); purchased AnaSpec, San Jose, Calif
T2 sequence (P05067 672-711 limits assumed): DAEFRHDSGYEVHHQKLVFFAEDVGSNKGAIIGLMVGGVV
The data set is described as follows: Kinetic Thioflavin T (ThT) aggregation assay of Aβ1-40. It counts as biochemical. Conditions: for inhibition of Aβ1-40 aggregation, as measured by Thioflavin T (ThT) fluorescence: 20 μM Aβ1-40, 4 μM ThT, pH 7.4, 37° C., kinetic ThT assay. The protocol:
Aβ^1-40 (1.0 mg) was pre-treated in a 1.5 mL microfuge tube with 1,1,1,3,3,3-hexafluoroisopropanol (HFIP, 1 mL) and sonicated for 20 min. to disassemble any pre-formed Aβ aggregates. The HFIP was removed with a stream of argon and the Aβ dissolved in Tris base (5.8 mL, 20 mM, pH 10.5). The pH was adjusted to 7.4 with concentrated HCl and the solution filtered using a syringe filter (0.2 μm). This solution was used for circular dichroism studies or diluted with an equal volume of 8 μM Thioflavin T (ThT) in Tris-HCl (20 mM, pH 7.4, 300 mM NaCl) for the ThT aggregation assay.
as §1, §2
FIG. 1 depicts the inhibition of Aβ^1-40 aggregation, as measured by Thioflavin T (ThT) fluorescence, by directly-linked 3,3′-bis-indolyl compounds 0c-i (A), other bis-indoles (B), aza-indole-containing compounds (C), indole-phenols (D), indole-5-carboxylic acid-containing bi-aromatics (E), and naphthol-containing bi-aromatics (F). Aggregation conditions: 20 μM Aβ^1-40 incubated in covered black 96-well polystyrene microplates with 4 μM ThT, pH 7.4, Tris-HCl (20 mM), 150 mM NaCl, 1% DMSO. Compound concentrations are 200 μM (A,B, except where otherwise noted), 100 μM (E), 20 μM (F), or as indicated (C,D). Plates heated at 37° C. in Tecan Genios microplate reader. All incubations performed in triplicate. Prior to experiment, Aβ^1-40 pretreated with 1,1,1,3,3,3-hexafluoroisopropanol (HFIP). Fluorescence readings: fluorescence measured every 15 min. (λex=450 nm, λem=480 nm) after shaking for 15 sec. and pausing 10 sec. before taking measurement. Values are the mean of three replicates. Error bars, omitted for clarity in (B), represent standard deviation of the mean.

A short description of data set [3]: Colour on exposure to light and air (stability to oxidation). Type of data set: physicochemical. Conditions: solid compounds, days or weeks. Here is the method:
The highly branched bridging groups of 1h,i,j provide additional molecular diversity to help identify favourable characteristics for compound activity against Aβ.

Data set [4] addresses T3, tau441 (Homo sapiens, UniProt P10636).
T3 construct: (expression construct); host or cells: E. coli BL21 D3
The data set is described as follows: Kinetic Thioflavin S (ThS) assay of tau441 aggregation. It counts as biochemical. Here is the method: The tau441 expression construct [L Buee et al. (2000). Brain Research Reviews 33:95-130] was purchased (Bioclon Inc., San Diego, Calif.) already transformed in BL21 D3 bacterial cells (Novagen/EMD Biosciences) for protein expression. Cells were grown and induced with IPTG according to Novagen's protocol. To lyse cells, Cellytic B reagent (Sigma) was used with lysozyme protease inhibitors (Sigma) and benzonase (Novagen/EMD Biosciences), according to manufacturer's methods. Lysate was cleared by centrifugation for 20 min at 10,000 RPM (SS34 rotor, Sorvall RC2b centrifuge) at 4° C. Protein was purified from the soluble fraction. Once purified, tau441 was stored at −78° C. as frozen aliquots (8.3 mg/mL, 60 μL) in Tris-HCl (50 mM, pH 7.4) until used.
Frozen aliquots of tau441 (8.3 mg/mL, 60 μL) in Tris-HCl (50 mM, pH 7.4) were allowed to thaw at room temperature (RT) before being diluted with Tris-HCl (2.64 mL, 50 mM, pH 7.4) containing dithiothreitol (DTT, 1 mM) to prevent disulfide bonds and NaN3 (50 μM) to prevent bacterial growth. After allowing to stand at RT for 1 h, Thioflavin S (ThS) was added (2.5 μL, 10.8 mM), followed by the aggregation inducer heparin (20 μL, 1.08 g/mL).
as §1
Aggregation conditions: tau441 at a concentration of either 10 μM (A) or 4 μM (B,C,D,E) was incubated in covered black 96-well polystyrene microplates alone or with 100 (A) or 50 μM compound (B,C,D,E), 5 μM ThS, pH 7.4, Tris-HCl (50 mM) containing NaN3 (50 μM), and either 1% MeOH (A) or 1% DMSO (B,C,D,E). Plates were heated at 37° C. in a Tecan GENios microplate reader. All incubations performed in triplicate, except for compound 0c in (A), which had n=1. Fluorescence readings: fluorescence measured every 15 min. (λex=450 nm, λem=480 nm) after shaking for 15 sec. and pausing 10 sec. before taking measurement. Values are the mean of three replicates. Error bars, sometimes not visible due to small size, represent standard deviation of the mean.
Aggregation conditions: tau441 at a concentration of 4 μM was incubated in covered black 96-well polystyrene microplates alone or with 50 μM (A,B,C) or 1 mM compound (D), 5 μM ThS, pH 7.4, Tris-HCl (50 mM) containing NaN3 (50 μM), and 1% DMSO. Plates were heated at 37° C. in a Tecan GENios microplate reader. All incubations performed in triplicate. Fluorescence readings: fluorescence measured every 15 min. (λex=450 nm, λem=480 nm) after shaking for 15 sec. and pausing 10 sec. before taking measurement. Values are the mean of three replicates. Error bars, sometimes not visible due to small size, represent standard deviation of the mean.

Molecules are shown by their SMILES.

T1 sequence (P05067 672-713 limits assumed): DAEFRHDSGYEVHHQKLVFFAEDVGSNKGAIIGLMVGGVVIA
T3 sequence (P10636 1-441 isoform P10636-8): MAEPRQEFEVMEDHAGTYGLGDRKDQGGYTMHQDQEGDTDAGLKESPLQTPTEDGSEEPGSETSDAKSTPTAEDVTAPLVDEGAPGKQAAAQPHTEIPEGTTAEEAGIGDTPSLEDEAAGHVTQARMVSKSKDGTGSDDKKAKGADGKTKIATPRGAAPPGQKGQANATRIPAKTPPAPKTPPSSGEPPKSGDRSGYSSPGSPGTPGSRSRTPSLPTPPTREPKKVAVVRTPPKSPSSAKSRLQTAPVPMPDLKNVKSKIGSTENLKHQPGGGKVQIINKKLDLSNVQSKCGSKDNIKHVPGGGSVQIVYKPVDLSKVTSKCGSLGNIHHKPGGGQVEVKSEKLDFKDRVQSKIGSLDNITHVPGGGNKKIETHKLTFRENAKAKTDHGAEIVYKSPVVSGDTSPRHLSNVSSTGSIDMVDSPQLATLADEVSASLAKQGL

Take `COc1ccc2[nH]cc(-c3c[nH]c4ccc(OC)cc34)c2c1` [0b, 5-methoxy-3-(5-methoxy-indol-3-yl)-indole]: the melting point (usually the temperature, or range, at which the solid turns liquid) fell in the range of 193 to 196 °C.

As to `O=C(O)c1ccc2c(-c3c[nH]c4ccccc34)c[nH]c2c1` [0k, 3-(Indol-3-yl)-indole-6-carboxylic Acid], the “inhibition of Aβ1-42 aggregation, as measured by ThT fluorescence” value (from here on “inhibition of Aβ1-42 aggregation”) in data set [1] is listed as “inhibiting aggregation”.

Regarding `Oc1ccc2[nH]cc(C3CNc4ncccc43)c2c1` (stereo not shown) [0n, 3-(2,3-dihydro-7-azaindol-3-yl)-indol-5-ol], in data set [2], the “inhibition of Aβ1-40 aggregation, as measured by Thioflavin T (ThT) fluorescence” value (“inhibition of Aβ1-40 aggregation” for short) is reported as “inhibit aggregation”. The “inhibition of Aβ1-42 aggregation” value in data set [1] is given as “inhibit aggregation”.

As for `B.O=C(O)c1ccc2[nH]cc(-c3c[nH]c4ncccc34)c2c1` [0o, 3-(7-azaindol-3-yl)-indole-5-carboxylic acid.BH3], the “inhibition of Aβ1-40 aggregation” value in data set [2] is “inhibit aggregation”. Further, the “inhibition of Aβ1-42 aggregation” value in data set [1] is on record as “inhibit aggregation”. In turn, `c1ccc2c(c1)ccn2Cc1c[nH]c2ccccc12` [1b, 3-((indol-1-yl)methyl)-indole] registered a melting point of 82 to 84 °C. Consider `COc1ccc2c(ccn2Cc2c[nH]c3ccc(OC)cc23)c1` [1d, 5-methoxy-3-((5-methoxy-indol-1-yl)methyl)-indole], for which the melting point was in the range of 48 to 50 °C. In turn, `CC(C)(c1c[nH]c2ccc(O)cc12)c1c[nH]c2ccc(O)cc12` [1h, 2,2-Bis-(5-hydroxyindol-3-yl)propane] showed a melting point of 133 to 136 °C. Also, the “colour when exposed to light and air” value in data set [3] was “remained a light colour”. Regarding `CC1(C)CC(C)(c2c[nH]c3ccc(O)cc23)c2[nH]c3ccc(O)cc3c21` (stereo not shown) [1i, 1,2,3,4-Tetrahydro-3-(5-hydroxyindol-3-yl)-1,1,3-trimethylcyclopenta[b]indol-7-ol], the melting point was 132 °C (dec.). Further, the “colour when exposed to light and air” value in data set [3] is recorded as “remained a light colour”. Consider `CC1(C)CC2(CC(C)(C)c3c2[nH]c2ccc(O)cc32)c2[nH]c3ccc(O)cc3c21` [1j, 3,3,3′,3′-Bis(1,2,3,4-tetrahydro-1,1-dimethylcyclopenta[b]indol-7-ol)], for which the melting point was 140 °C (dec.). Also, the “colour when exposed to light and air” value in data set [3] was “remained a light colour”. `O=C(O)c1ccc2[nH]cc(CCc3c[nH]c4ccc(Br)cc34)c2c1` [2b, 3-(2-(5-bromo-indol-3-yl)ethyl)-indole-5-carboxylic Acid]: the melting point is 205 °C (dec.). As for `B.COc1ccc2[nH]cc(-c3c[nH]c4ncccc34)c2c1` [10n, 3-(5-methoxyindol-3-yl)-7-azaindole.BH3], the “inhibition of Aβ1-40 aggregation” value in data set [2] is given as “inhibit aggregation”. For the same compound, in data set [1], the “inhibition of Aβ1-42 aggregation” value is on record as “inhibit aggregation”. For `Oc1cccc(Nc2ccc(Nc3cccc(O)c3)nn2)c1` [RS-0406], the “inhibition of Aβ1-42 aggregation” value in data set [1] is recorded as “inhibition”. With `Oc1ccc2cc(-c3cc4ccccc4o3)ccc2c1` [compound 64, 6-Benzofuran-2-yl-naphthalen-2-ol], the “inhibition of Aβ1-42 aggregation” value in data set [1] is given as “inhibiting aggregation”. Take `O=C(O)c1sc2ccccc2c1-c1cc2ccccc2o1` [compound 83, 3-(Benzofuran-2-yl)-benzothiophene-2-carboxylic Acid]: the “effect on tau fibrillization (ThS fluorescence)” value in data set [4] (tau441 4 or 10 μM, 50 to 100 μM compound, 5 μM ThS, heparin inducer, pH 7.4, 37° C.) is listed as “Other than 83 in FIG. 10E, all the bi-aromatics tested significantly modulated”. For `O=C(O)c1ccc2[nH]c(Cc3ccc(O)cc3)c(Cc3ccc(O)cc3)c2c1` [compound 102, 2,3-bis(4-hydroxybenzyl)-indole-5-carboxylic Acid], the “activity against (inhibition of) Aβ1-40 aggregation at 200 μM compound” value in data set [2] (200 μM compound, 20 μM Aβ1-40, kinetic ThT assay (FIG. 1A, 1D)) is reported as “active”. As for `O=C(O)c1cccnc1` [nicotinic acid], in data set [4] (tau441 4 μM, 1 mM compound (FIG. 11D)), the “effect on tau fibrillization (ThS fluorescence) at 1 mM” value is “no effect”.

The record behind these values is patent US20070015813A1, “Treatment of protein folding disorders” (QUEEN'S UNIVERSITY AT KINGSTON, priority 2005, published 2007).
